# Assay results reported in patent publication US20150126475A1, “PESTICIDAL COMPOSITION AND METHOD FOR CONTROLLING PESTS” (priority 2012, published 2015).
# What was measured:
# Format in all cases: in vivo
# [1] = system: southern root-knot nematode (Meloidogyne incognita); assay: Root knot index on tomato in pots with soil contaminated with southern root-knot nematode (Test Example 1); parameters: key: visual root knot index, 0 to 100%; conditions: non-treated = 100
# Experimental: 1 Liter of sand soil having paddy soil sterilized by steam and sand mixed in a volume ratio of 1:1 was put into a 1/1,000,000 ha pot, and a predetermined amount of a test compound was added and mixed. Immediately after addition of the compound, 500 mL of soil contaminated with southern root-knot nematode (Meloidogyne incognita) was put in each pot and sufficiently mixed, and then seedling of tomato (cultivar: yellow pear) were transplantated. On the 33rd to 35th day after transplantation, the root knot index (0 to 100%) formed by nematode was visually determined. The test was carried out by two replications.
# Further, theoretical values determined by the Colby's formula are shown in brackets ( ) in Tables.
# [2] = system: two-spotted spider mite; assay: Control of two-spotted spider mite on eggplant seedlings in pots (Test Example 2); conditions: 14th day after treatment
# Experimental: 1 Liter of sand soil having paddy soil sterilized by steam and sand mixed in a volume ratio of 1:1 was put into a 1/1,000,000 ha pot, and a predetermined amount of a test compound was added and mixed. Seedlings of eggplant (cultivar: Senryo No. 2) in which 30 adults of two-spotted spider mite (greenish yellow) were parasitic were transplanted and grown in a greenhouse for 5 days, and a test compound was applied to each pot. On the 14th day after treatment, the number of two-spotted spider mite parasitic in each pot was examined. The test was carried out by three replications. The test results are shown in Table 4 by the control value (%). Further, theoretical values determined by the Colby's formula are shown in brackets ( ) in Table 4.
# Further, the control value (%) was calculated in accordance with the following formula.
# (§1) Control value(%)=(1−(number of parasites in treated area)/(number of parasites in non-treated area))×100
# [3] = system: common cutworm; assay: Control of common cutworm larvae on leaf of cabbage grown in treated soil (Test Example 3); conditions: second-instar larvae, 4th day
# Excerpt: as §1
# Sand soil having sand, non-sterilized soil and sterilized soil mixed in a volume ratio of 1:1:1 was put into a 1/500,000 ha pot, and predetermined amounts of test compounds were sufficiently mixed. Seedlings of cabbage (cultivar: Okina) in 3-leaf stage were transplanted and grown in a greenhouse for 11 days. Then, the fourth leaf of the cabbage was cut, and 10 second-instar larvae of common cutworm were released. On the 4th day, the number of surviving insects was examined, and the control value was determined in the same manner as in Test Example 2. The test was carried out by three replications. Further, theoretical values determined by the Colby's formula are shown in brackets ( ) in Table 5. Further, the combination of fosthiazate and imidacloprid was tested as a Comparative Example.
# [4] = system: larvae of turnip fly; assay: Field test, damage to Daikon radish root by larvae of turnip fly (Test Example 4); conditions: 36th day after sowing
# Experimental: Granules of fosthiazate and granules of clothianidin were mixed in predetermined active ingredient amounts, and the mixture was spread on the surface of soil of a field and sufficiently mixed by a small rotary. Seeds of Daikon radish were sown, and on the 36th day after sowing, the degree of damage to the root by larvae of turnip fly was examined by degree, and the damage grade was determined in accordance with the following formula. Further, theoretical values determined by the Colby's formula are shown in brackets ( ) in Table 6. Further, the combination of granules of fosthiazate and granules of imidacloprid was tested as a Comparative Example.
# Degree of damage (nil: 0, low: 1, middle: 2, high: 3, enormous: 4)
# Damage grade={Σ(damage grade index×number of Daikon radish investigated at each degree of damage)/(total number investigated×4)}×100
# [5] = Table 1, single compound 5000 g a.i./ha, tomato, 33rd to 35th day
# [6] = single compound granules 500 g a.i/ha
# [7] = single compound granules 750 g a.i/ha
# [8] = single compound granules 1000 g a.i/ha
# [9] = Table 3, single compound 5000 g a.i./ha
# [10] = Table 2, single compound 500 g a.i./ha
smiles,measurement,setting,value
CCOP(=O)(SC(C)CC)N1CCSC1=O (stereo not shown) [fosthiazate],Root knot index,"[1]; Table 1, single compound 750 g a.i./ha, soil mixing, tomato, 33rd to 35th day",35.4
same,Root knot index,"[1]; Table 2, single compound 750 g a.i./ha",22.0
same,Root knot index,"[1]; Table 2, single compound 1500 g a.i./ha",5.0
same,Root knot index,"[1]; Table 3, single compound 750 g a.i./ha",15.8
same,Control value,[2]; single compound 6000 g a.i/ha,98%
same,Control value,[3]; single compound 6000 g a.i/ha,73.3%
same,Damage degree,"[4]; single compound granules 6000 g a.i/ha, Daikon radish field",33.7
CN1COCN(Cc2cnc(Cl)s2)/C1=N\[N+](=O)[O-] [thiamethoxam],Root knot index,[1]; [5],95.7
"O=[N+]([O-])NC1=NCCN1Cc1ccc(Cl)nc1 [Imidacloprid, imidacloprid]",Control value,[3]; single compound 156 g a.i/ha,6.7%
same,Control value,[3]; single compound 313 g a.i/ha,13.3%
same,Damage degree,[4]; [6],23.2
same,Damage degree,[4]; [7],34.7
same,Damage degree,[4]; [8],26.3
CN/C(=N/CC1CCOC1)N[N+](=O)[O-] (stereo not shown) [dinotefuran],Root knot index,[1]; [5],97.6
"O=C(NC(=O)c1c(F)cccc1F)Nc1cc(Cl)c(F)c(Cl)c1F [Teflubenzuron, teflubenzuron]",Root knot index,[1]; [9],100
"O=C(NC(=O)c1c(F)cccc1F)Nc1cc(Cl)c(Oc2ncc(C(F)(F)F)cc2Cl)c(Cl)c1 [Chlorfluazuron, chlorfluazuron]",Root knot index,[1]; [9],100
"Cc1c(F)c(F)c(COC(=O)[C@@H]2[C@H](/C=C(\Cl)C(F)(F)F)C2(C)C)c(F)c1F (racemic) [Tefluthrin, tefluthrin]",Root knot index,[1]; [10],100
"CCOc1ccc([Si](C)(C)CCCc2ccc(F)c(Oc3ccccc3)c2)cc1 [Silafluofen, silafluofen]",Root knot index,[1]; [10],100
CN/C(=N\[N+](=O)[O-])NCc1cnc(Cl)s1 [clothianidin],Root knot index,[1]; [5],99.3
same,Control value,[2]; single compound 400 g a.i/ha,35%
same,Control value,[2]; single compound 800 g a.i/ha,48%
same,Control value,[2]; single compound 1500 g a.i/ha,22%
same,Control value,[3]; single compound 156 g a.i/ha,3.3%
same,Control value,[3]; single compound 313 g a.i/ha,20.0%
same,Damage degree,[4]; [6],20.0
same,Damage degree,[4]; [7],25.3
same,Damage degree,[4]; [8],0
"O=C(NC(=O)c1c(F)cccc1F)Nc1ccc(Oc2ccc(C(F)(F)F)cc2Cl)cc1F [Flufenoxuron, flufenoxuron]",Root knot index,[1]; [9],100
